Source: US12091426B2, “Bifunctional degraders of hematopoietic progenitor kinase and therapeutic uses thereof” (Nurix Therapeutics, Inc., priority 2021, dated 2024)

Target: T1, HPK1 (Homo sapiens, UniProt Q92918)
T1 construct: A HiBiT tag was introduced by CRISPR on the N terminus of HPK1 in Jurkat cells; host or cells: Jurkat cells (ATCC TIB-152), monoclonal line with CRISPR knock-in of HiBiT at the endogenous HPK1 locus
Assay: HPK1 Cellular HiBit Degradation Assay
Format: cell-based
Details: HiBiT HPK1 Jurkat cells, 24 hrs; for DC50: concentration at which 50% of HPK1 was remaining, read-out: DC50 Category; for Dmax: Jurkat, maximum degradation vs DMSO vehicle control, read-out: Dmax Category
Outline: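 Jurkat cells with CRISPR N-terminal HiBiT-tagged endogenous HPK1 treated 24 h at 37 °C with 11-point, 3.16-fold dilutions (10 uM to 0.1 nM final). HiBiT lytic luminescence gives % HPK1 remaining versus DMSO, with parental cells as background. Four-parameter fit yields DC50; Dmax = 100 minus lowest % remaining.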

T1 sequence (Q92918 whole entry): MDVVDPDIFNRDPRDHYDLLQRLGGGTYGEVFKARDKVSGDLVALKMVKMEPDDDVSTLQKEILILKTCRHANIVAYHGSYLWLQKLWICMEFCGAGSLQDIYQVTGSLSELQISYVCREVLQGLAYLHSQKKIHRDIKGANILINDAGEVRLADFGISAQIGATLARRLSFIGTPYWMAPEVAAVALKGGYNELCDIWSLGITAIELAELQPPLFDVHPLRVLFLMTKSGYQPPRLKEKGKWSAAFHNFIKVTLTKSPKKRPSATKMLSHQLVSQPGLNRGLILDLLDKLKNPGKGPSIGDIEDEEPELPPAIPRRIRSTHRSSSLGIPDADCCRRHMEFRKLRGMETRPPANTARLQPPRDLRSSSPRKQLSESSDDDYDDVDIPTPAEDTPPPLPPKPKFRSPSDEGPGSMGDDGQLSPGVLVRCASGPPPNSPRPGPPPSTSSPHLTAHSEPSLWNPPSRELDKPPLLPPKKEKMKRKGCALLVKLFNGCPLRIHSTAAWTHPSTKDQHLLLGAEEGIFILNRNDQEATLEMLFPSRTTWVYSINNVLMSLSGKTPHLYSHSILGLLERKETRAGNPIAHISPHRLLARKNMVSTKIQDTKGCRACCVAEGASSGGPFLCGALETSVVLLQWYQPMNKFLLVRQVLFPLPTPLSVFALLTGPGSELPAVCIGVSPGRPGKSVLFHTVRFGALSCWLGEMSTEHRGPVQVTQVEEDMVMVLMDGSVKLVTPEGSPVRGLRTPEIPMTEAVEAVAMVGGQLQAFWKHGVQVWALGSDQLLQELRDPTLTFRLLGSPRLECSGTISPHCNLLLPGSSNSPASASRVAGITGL

Structure (SMILES)	DC50	Dmax
CC(C)n1cnc2cc(-c3ccc4c(c3)N([C@H]3C[C@@H](N5CCOCC5)C3)C(=O)C43CCN(C(=O)C4(C)CCN(C(=O)C5CCN(c6ccc(C7CCC(=O)NC7=O)cn6)CC5)CC4)CC3)nc(NC3CC3)c21 (mixture of isomers) [Example 216, (3RS)-3-(6-{4-[4-({6-[4-(cyclopropylamino)-3-(propan-2-yl)-3H-imidazo[4,5-c]pyridin-6-yl]-2-oxo-1-[(1S,3S)-3-(MORPHOLIN-4-yl)cyclobutyl]-1,2-dihydrospiro[indole-3,4′-piperidin]-1′-yl}carbonyl)-4-methylpiperidine-1-carbonyl]piperidin-1-yl}pyridin-3-yl)piperidine-2,6-dione]	100 to 500 nM	50 to 70%
CC(C)n1cnc2cc(-c3ccc4c(c3)N([C@H]3C[C@@H](N5CC6CCC(C6)C5)C3)C(=O)C43CCN(C(=O)C4(C)CCN(C(=O)C5CCN(c6ccc(C7CCC(=O)NC7=O)cn6)CC5)CC4)CC3)nc(NC3CC3)c21 (mixture of isomers) [Example 217, (3RS)-3-(6-{4-[4-({6-[4-(cyclopropylamino)-3-(propan-2-yl)-3H-imidazo[4,5-c]pyridin-6-yl]-2-oxo-1-[(1S,3S)-3-{3-Azabicyclo[3.2.1]octan-3-yl}cyclobutyl]-1,2-dihydrospiro[indole-3,4′-piperidin]-1′-yl}carbonyl)-4-methylpiperidine-1-carbonyl]piperidin-1-yl}pyridin-3-yl)piperidine-2,6-dione]	< 100 nM	> 85%
CC(C)n1cnc2cc(-c3ccc4c(c3)N([C@H]3C[C@@H](N5C6COCC5C6)C3)C(=O)C43CCN(C(=O)C4(C)CCN(C(=O)C5CCN(c6ccc(C7CCC(=O)NC7=O)cn6)CC5)CC4)CC3)nc(NC3CC3)c21 (mixture of isomers) [Example 218, (3RS)-3-(6-{4-[4-({6-[4-(cyclopropylamino)-3-(propan-2-yl)-3H-imidazo[4,5-c]pyridin-6-yl]-2-oxo-1-[(1S,3S)-3-{3-oxa-6-azabicyclo[3.1.1]heptan-6-yl}cyclobutyl]-1,2-dihydrospiro[indole-3,4′-piperidin]-1′-yl}carbonyl)-4-methylpiperidine-1-carbonyl]piperidin-1-yl}pyridin-3-yl)piperidine-2,6-dione]	100 to 500 nM	50 to 70%
CC(C)n1cnc2cc(-c3ccc4c(c3)N([C@H]3C[C@@H](N5CCC[C@@H](F)C5)C3)C(=O)C43CCN(C(=O)C4(C)CCN(C(=O)C5CCN(c6ccc(C7CCC(=O)NC7=O)cn6)CC5)CC4)CC3)nc(NC3CC3)c21 (mixture of isomers) [Example 219, (3RS)-3-(6-{4-[4-({6-[4-(cyclopropylamino)-3-(propan-2-yl)-3H-imidazo[4,5-c]pyridin-6-yl]-2-oxo-1-[(1S,3S)-3-[(3R)-3-fluoropiperidin-1-yl]cyclobutyl]-1,2-dihydrospiro[indole-3,4′-piperidin]-1′-yl}carbonyl)-4-methylpiperidine-1-carbonyl]piperidin-1-yl}pyridin-3-yl)piperidine-2,6-dione]	100 to 500 nM	70 to 85%
CC(C)n1cnc2cc(-c3ccc4c(c3)N([C@H]3C[C@@H](N5CCCCC5)C3)C(=O)C43CCN(C(=O)C4(C)CCN(C(=O)C5CCN(c6ncc(C7CCC(=O)NC7=O)cn6)CC5)CC4)CC3)nc(NC3CC3)c21 (mixture of isomers) [Example 220, (3RS)-3-(2-{4-[4-({6-[4-(cyclopropylamino)-3-(propan-2-yl)-3H-imidazo[4,5-c]pyridin-6-yl]-2-oxo-1-[(1S,3S)-3-(piperidin-1-yl)cyclobutyl]-1,2-dihydrospiro[indole-3,4′-piperidin]-1′-yl}carbonyl)-4-methylpiperidine-1-carbonyl]piperidin-1-yl}pyrimidin-5-yl)piperidine-2,6-dione]	< 100 nM	70 to 85%
CC(C)n1cnc2cc(-c3ccc4c(c3)N([C@H]3C[C@@H](N5CCCCC5)C3)C(=O)C43CCN(C(=O)C4(C)CCN(C(=O)CC5CCN(c6ccc(C7CCC(=O)NC7=O)cn6)CC5)CC4)CC3)nc(NC3CC3)c21 (mixture of isomers) [Example 221, (3RS)-3-[6-(4-{2-[4-({6-[4-(cyclopropylamino)-3-(propan-2-yl)-3H-imidazo[4,5-c]pyridin-6-yl]-2-oxo-1-[(1S,3S)-3-(piperidin-1-yl)cyclobutyl]-1,2-dihydrospiro[indole-3,4′-piperidin]-1′-yl}carbonyl)-4-methylpiperidin-1-yl]-2-oxoethyl}piperidin-1-yl)pyridin-3-yl]piperidine-2,6-dione]	< 100 nM	70 to 85%
CC(C)n1cnc2cc(-c3ccc4c(c3)N([C@H]3C[C@@H](N5C6CCC5COC6)C3)C(=O)C43CCN(C(=O)C4(C)CCN(C(=O)CC5CCN(c6ccc(C7CCC(=O)NC7=O)cn6)CC5)CC4)CC3)nc(NC3CC3)c21 (mixture of isomers) [Example 222, (3RS)-3-[6-(4-{2-[4-({6-[4-(cyclopropylamino)-3-(propan-2-yl)-3H-imidazo[4,5-c]pyridin-6-yl]-2-oxo-1-[(1S,3S)-3-{3-oxa-8-Azabicyclo[3.2.1]octan-8-yl}cyclobutyl]-1,2-dihydrospiro[indole-3,4′-piperidin]-1′-yl}carbonyl)-4-methylpiperidin-1-yl]-2-oxoethyl}piperidin-1-yl)pyridin-3-yl]piperidine-2,6-dione]	100 to 500 nM	50 to 70%
CC(C)n1cnc2cc(-c3ccc4c(c3)N([C@H]3C[C@@H](N5CC6CCC(C6)C5)C3)C(=O)C43CCN(C(=O)C4(C)CCN(C(=O)CC5CCN(c6ccc(C7CCC(=O)NC7=O)cn6)CC5)CC4)CC3)nc(NC3CC3)c21 (mixture of isomers) [Example 223, (3RS)-3-[6-(4-{2-[4-({6-[4-(cyclopropylamino)-3-(propan-2-yl)-3H-imidazo[4,5-c]pyridin-6-yl]-2-oxo-1-[(1S,3S)-3-{3-azabicyclo[3.2.1]octan-3-yl}cyclobutyl]-1,2-dihydrospiro[indole-3,4′-piperidin]-1′-yl}carbonyl)-4-methylpiperidin-1-yl]-2-oxoethyl}piperidin-1-yl)pyridin-3-yl]piperidine-2,6-dione]	< 100 nM	70 to 85%
CC(C)n1cnc2cc(-c3ccc4c(c3)N([C@H]3C[C@@H](N5CCCCC5)C3)C(=O)C43CCN(C(=O)C4(C)CCN(C(=O)CN5CCC(c6ccc(C7CCC(=O)NC7=O)cn6)CC5)CC4)CC3)nc(NC3CC3)c21 (mixture of isomers) [Example 224, (3RS)-3-[6-(1-{2-[4-({6-[4-(cyclopropylamino)-3-(propan-2-yl)-3H-imidazo[4,5-c]pyridin-6-yl]-2-oxo-1-[(1S,3S)-3-(piperidin-1-yl)cyclobutyl]-1,2-dihydrospiro[indole-3,4′-piperidin]-1′-yl}carbonyl)-4-methylpiperidin-1-yl]-2-oxoethyl}piperidin-4-yl)pyridin-3-yl]piperidine-2,6-dione]	100 to 500 nM	70 to 85%
CC(C)n1cnc2cc(-c3ccc4c(c3)N([C@H]3C[C@@H](N5CCCCC5)C3)C(=O)C43CCN(C(=O)C4(C)CCN(CC5CCN(c6ccc(C7CCC(=O)NC7=O)cn6)CC5)CC4)CC3)nc(NC3CC3)c21 (mixture of isomers) [Example 225, (3RS)-3-[6-(4-{[4-({6-[4-(cyclopropylamino)-3-(propan-2-yl)-3H-imidazo[4,5-c]pyridin-6-yl]-2-oxo-1-[(1S,3S)-3-(piperidin-1-yl)cyclobutyl]-1,2-dihydrospiro[indole-3,4′-piperidin]-1′-yl}carbonyl)-4-methylpiperidin-1-yl]methyl}piperidin-1-yl)pyridin-3-yl]piperidine-2,6-dione]	500 to 1000 nM	50 to 70%
Cc1cc(C2CCC(=O)NC2=O)ccc1N1CCC(C(=O)N2CCC(C)(C(=O)N3CCC4(CC3)C(=O)N([C@H]3C[C@@H](N5CCCCC5)C3)c3cc(-c5cc6ncn(C(C)C)c6c(NC6CC6)n5)ccc34)CC2)CC1 (mixture of isomers) [Example 226, (3RS)-3-(4-{4-[4-({6-[4-(cyclopropylamino)-3-(propan-2-yl)-3H-imidazo[4,5-c]pyridin-6-yl]-2-oxo-1-[(1S,3S)-3-(piperidin-1-yl)cyclobutyl]-1,2-dihydrospiro[indole-3,4′-piperidin]-1′-yl}carbonyl)-4-methylpiperidine-1-carbonyl]piperidin-1-yl}-3-methylphenyl)piperidine-2,6-dione]	100 to 500 nM	70 to 85%
Cc1cc(N2CCC(C(=O)N3CCC(C)(C(=O)N4CCC5(CC4)C(=O)N([C@H]4C[C@@H](N6CCCCC6)C4)c4cc(-c6cc7ncn(C(C)C)c7c(NC7CC7)n6)ccc45)CC3)CC2)ccc1C1CCC(=O)NC1=O (mixture of isomers) [Example 227, (3RS)-3-(4-{4-[4-({6-[4-(cyclopropylamino)-3-(propan-2-yl)-3H-imidazo[4,5-c]pyridin-6-yl]-2-oxo-1-[(1S,3S)-3-(piperidin-1-yl)cyclobutyl]-1,2-dihydrospiro[indole-3,4′-piperidin]-1′-yl}carbonyl)-4-methylpiperidine-1-carbonyl]piperidin-1-yl}-2-methylphenyl)piperidine-2,6-dione]	100 to 500 nM	70 to 85%
CC(C)n1cnc2cc(-c3ccc4c(c3)N([C@H]3C[C@@H](N5CCCCC5)C3)C(=O)C43CCN(C(=O)[C@H]4CC[C@@H](C(=O)N5CCC(N(C)c6ccc(C7CCC(=O)NC7=O)cc6)CC5)CC4)CC3)nc(NC3CC3)c21 (mixture of isomers) [Example 228, (3RS)-3-{4-[methyl({1-[(1S,4S)-4-({6-[4-(cyclopropylamino)-3-(propan-2-yl)-3H-imidazo[4,5-c]pyridin-6-yl]-2-oxo-1-[(1S,3S)-3-(piperidin-1-yl)cyclobutyl]-1,2-dihydrospiro[indole-3,4′-piperidin]-1′-yl}carbonyl)cyclohexanecarbonyl]piperidin-4-yl})amino]phenyl}piperidine-2,6-dione]	100 to 500 nM	50 to 70%
